In the supplement of paper PMC6580486:
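Note: alveolar rhabdomyosarcoma tumor culture.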

What follows are molecules tested on U23674 (mouse alveolar rhabdomyosarcoma primary culture).
In the case of `COC(=O)Nc1nc2ccc(S(=O)(=O)c3ccc(NC(=O)Nc4cc(C(F)(F)F)ccc4F)cc3)cc2[nH]1`, the IC50 cell viability is reported as greater than 10 µM.
`Cc1cc(O)cc(C)c1/C=C/c1cncc(C(N)=O)c1` showed an IC50 cell viability greater than 10 µM.
`CCn1c(-c2nonc2N)nc2c(N3CCCC3)nccc21` gave an IC50 cell viability greater than 10 µM.
Work on `COc1cc2c(cc1Nc1nc(Nc3cccc(F)c3C(N)=O)c3cc[nH]c3n1)N(C(=O)CN1CCN(C(C)C)CC1)CC2` yielded an IC50 cell viability of 3.2 µM.
Molecule `NS(=O)(=O)c1ccc(Nc2cc(-c3ccc(O)c(F)c3)[nH]n2)cc1` has an IC50 cell viability greater than 10 µM.
`CCn1c(-c2nonc2N)nc2cnc(Oc3cccc(NC(=O)c4ccc(OCCN5CCOCC5)cc4)c3)cc21` gave an IC50 cell viability greater than 10 µM.
Molecule `Nc1nccc(-c2c(-c3ccc(F)cc3)ncn2CCCN2CCOCC2)n1` has an IC50 cell viability greater than 10 µM.
`O=C1NC(=O)C(c2ccc(Cl)cc2)=C1Nc1ccc(Cl)c(C(=O)O)c1` was tested, and the IC50 cell viability was 3.9 µM.
Work on `Nc1nccc(-c2c(-c3ccc(F)cc3)nn3cc(C(F)(F)F)ccc23)n1` yielded an IC50 cell viability greater than 10 µM.
In the case of `Nc1nccc(-c2c(-c3ccc(F)cc3)ncn2C2CCC(O)CC2)n1` (stereo not drawn), the IC50 cell viability is reported as greater than 10 µM.
`COc1cccc(-n2ncc3c(N/N=C/c4ccc(S(C)(=O)=O)cc4)ncnc32)c1` gave an IC50 cell viability greater than 10 µM.
`COc1ccc(-c2nn3ncccc3c2-c2ccnc(Nc3ccc(Cl)c(C(F)(F)F)c3)n2)cc1` was tested, and the IC50 cell viability was greater than 10 µM.
`Cc1cc(O)cc(C)c1/C=C/c1cncc(C(=O)N(C)C)c1` gave an IC50 cell viability greater than 10 µM.
With `CS(=O)(=O)CCNCc1ccc(-c2ccc3ncnc(Nc4ccc(OCc5ccccc5)c(Cl)c4)c3c2)o1` the IC50 cell viability was greater than 10 µM.
Work on `CCN1CCC(CC(=O)Nc2n[nH]c3nnc(-c4cccc(F)c4F)cc23)CC1` yielded an IC50 cell viability of 5.1 µM.
For `Cc1nnc(-c2ccc(C)c(-c3ccc(C(=O)Nc4cccc(C#N)c4)cc3)c2)o1`, the IC50 cell viability was greater than 10 µM.
`CCc1cccc(CC)c1/C=C/c1cncc(C(=O)NC)c1` showed an IC50 cell viability greater than 10 µM.
Work on `COc1cc(/C=N/Nc2ncnc3c2cnn3C(C)C)ccc1O` yielded an IC50 cell viability greater than 10 µM.
Molecule `COc1cccc(COc2cc(-n3cnc4ccccc43)sc2C(N)=O)c1` has an IC50 cell viability greater than 10 µM.
Work on `CNC(=O)c1cncc(/C=C/c2c(C)cccc2C)c1` yielded an IC50 cell viability greater than 10 µM.
`COc1cccc(-c2c[nH]c3c(N/N=C/c4ccncc4)ncnc23)c1` gave an IC50 cell viability greater than 10 µM.
For `CCCN(CCS(C)(=O)=O)Cc1ccc(-c2ccc3ncnc(Nc4ccc(OCc5cccc(F)c5)c(Cl)c4)c3c2)o1`, the IC50 cell viability was greater than 10 µM.
Work on `CCOc1nccc2c1nc(-c1nonc1N)n2CC` yielded an IC50 cell viability greater than 10 µM.
Work on `COc1ccc2ncn(-c3cc(O[C@H](C)c4ccccc4Cl)c(C(N)=O)s3)c2c1` yielded an IC50 cell viability of 2 µM.
`Cc1ccc(NC(=O)c2ccnc(N3CCCC3)c2)cc1-c1ccc(C(=O)NCC2CC2)cc1` was tested, and the IC50 cell viability was greater than 10 µM.
`[O-][S+]1CCN(Cc2ccc(-c3ccc4ncnc(Nc5ccc(OCc6ccccc6)c(F)c5)c4c3)o2)CC1` showed an IC50 cell viability greater than 10 µM.
In the case of `COc1ccc2cc(-c3c(-c4ccncc4)nc(-c4ccc([S+](C)[O-])cc4C)n3C)ccc2c1` (stereo not drawn), the IC50 cell viability is reported as greater than 10 µM.
`CNC(=O)c1cncc(/C=C/c2c(Cl)cccc2Cl)c1` gave an IC50 cell viability greater than 10 µM.
`Cn1cc(C=C2C(=O)Nc3cccnc32)c2ccccc21` was tested, and the IC50 cell viability was greater than 10 µM.
`Oc1[nH]c2ccccc2c1C=Nc1ccc(-n2cncn2)cc1` gave an IC50 cell viability greater than 10 µM.
For `NC(=O)c1sc(-n2cnc3ccc(C(F)(F)F)cc32)cc1OCc1ccccc1Br`, the IC50 cell viability was greater than 10 µM.
`CCc1nn2ncccc2c1-c1ccnc(NC2CC2)n1` was tested, and the IC50 cell viability was greater than 10 µM.
In the case of `CS(=O)(=O)CCNCc1ccc(-c2ccc3ncnc(Nc4ccc(OCc5cccc(F)c5)c(C(F)(F)F)c4)c3c2)o1`, the IC50 cell viability is reported as 4.8 µM.
In the case of `COc1cc(C=NNc2ncnc3c2cnn3Cc2ccccc2)ccc1O`, the IC50 cell viability is reported as greater than 10 µM.
`CC1=C(C(=O)Nc2ccc3n[nH]c(C)c3c2)C(c2ccc(C(F)(F)F)cc2)CC(=O)N1` (stereo not drawn) gave an IC50 cell viability greater than 10 µM.
For `Cc1ccc(NC(=O)CC2CC2)cc1-c1ccc(C(=O)NCC2CC2)cc1`, the IC50 cell viability was 3.4 µM.
Work on `c1ccc(-c2[nH]ncc2-c2ccnc(-c3ccc(OCCN4CCOCC4)cc3)c2)nc1` yielded an IC50 cell viability greater than 10 µM.
`CCc1nccc2c1nc(-c1nonc1N)n2CC` gave an IC50 cell viability greater than 10 µM.
`CCN(CC)S(=O)(=O)c1ccc(OC)c(Nc2ncc(-c3ccccc3)o2)c1` showed an IC50 cell viability greater than 10 µM.
Work on `NC(=O)c1cccc(Nc2nccc(Nc3cccc4[nH]ncc34)n2)c1` yielded an IC50 cell viability greater than 10 µM.
`Cc1ccc2c(-c3ccnc(Nc4ccc5c(c4)OCCO5)n3)c(-c3ccc(C(F)(F)F)cc3)nn2n1` gave an IC50 cell viability greater than 10 µM.
For `NS(=O)(=O)c1ccc(N=Nc2c(O)[nH]c3ccc(-c4cnco4)cc23)cc1`, the IC50 cell viability was greater than 10 µM.
For `NC(=O)c1sc(-n2cnc3cc(C(F)(F)F)ccc32)cc1OCc1ccccc1Br`, the IC50 cell viability was greater than 10 µM.
With `CCn1c(-c2nonc2N)nc2ccc(F)cc21` the IC50 cell viability was greater than 10 µM.
With `CS(=O)(=O)CCNCc1nc(-c2ccc3ncnc(Nc4ccc(OCc5cccc(C(F)(F)F)c5)cc4)c3c2)cs1` the IC50 cell viability was greater than 10 µM.
With `CCC(=O)Nc1ccc(C)c(-c2ccc(C(=O)NCC3CC3)cc2)c1` the IC50 cell viability was greater than 10 µM.
`O=C(Nc1n[nH]c2cc(-c3cc(F)ccc3F)ccc12)C1CC1` showed an IC50 cell viability greater than 10 µM.
Molecule `COc1cc(Nc2nccc(Nc3ccc4c(C)[nH]nc4c3)n2)cc(OC)c1OC` has an IC50 cell viability of 5.6 µM.
For `CCn1cc(-c2ccnc3[nH]ccc23)c(-c2cccc(NC(=O)Nc3ccc(OCc4ccccc4)cc3)c2)n1`, the IC50 cell viability was greater than 10 µM.
`N#Cc1c(NC(=O)c2cccc3ccccc23)sc2c1CCCC2` gave an IC50 cell viability of 3.5 µM.
Molecule `COc1cccc(/C=N/Nc2ncnc3c2cnn3-c2cccc(OC)c2)c1` has an IC50 cell viability greater than 10 µM.
`FC(F)(F)c1cccc(Nc2nccc(-c3cnn4nc(-c5ccccc5)ccc34)n2)c1` was tested, and the IC50 cell viability was greater than 10 µM.
`COc1ccccc1Nc1ncc(-c2ccccc2)o1` was tested, and the IC50 cell viability was greater than 10 µM.
Work on `CN1CCC(n2cnc(-c3ccc(F)cc3)c2-c2ccnc(N)n2)CC1` yielded an IC50 cell viability greater than 10 µM.
For `COc1cc2ncn(-c3cc(OCc4ccccc4C(F)(F)F)c(C(N)=O)s3)c2cc1OC`, the IC50 cell viability was greater than 10 µM.
`C[C@@H](Oc1cc(-n2cnc3ccc(OC[C@@H](O)CO)cc32)sc1C(N)=O)c1ccccc1Cl` showed an IC50 cell viability of 5.4 µM.
In the case of `O=C1NC(=O)C(c2ccccc2Cl)=C1Nc1cccc(O)c1`, the IC50 cell viability is reported as 2 µM.
For `ON=C1CCc2cc(-c3nc(C4CCNCC4)[nH]c3-c3ccncc3)ccc21`, the IC50 cell viability was greater than 10 µM.
Molecule `CS(=O)(=O)CCNCc1ccc(-c2ccc3ncnc(Nc4ccc(OCc5ccccc5)c(Br)c4)c3c2)o1` has an IC50 cell viability greater than 10 µM.
`N#Cc1c(NC(=O)CN2CCOCC2)sc2c1CCCC2` showed an IC50 cell viability greater than 10 µM.
`COc1cc(Nc2nccc(-c3cnn4ncccc34)n2)cc(OC)c1` gave an IC50 cell viability of 4 µM.
`CS(=O)(=O)CCN(CC#N)Cc1ccc(-c2ccc3ncnc(Nc4ccc(OCc5cccc(F)c5)c(Cl)c4)c3c2)o1` gave an IC50 cell viability greater than 10 µM.
`COC(=O)Nc1nc2ccc(Oc3ccc(NC(=O)Nc4cccc(Cl)c4)cc3)cc2[nH]1` was tested, and the IC50 cell viability was greater than 10 µM.
With `CN(C)c1ccc2[nH]c(O)c(C=Nc3ccc(S(N)(=O)=O)cc3)c2c1` the IC50 cell viability was greater than 10 µM.
`FC(F)(F)CNc1nccc(-c2cnn3ncccc23)n1` gave an IC50 cell viability of 4.4 µM.
With `CC(=O)Nc1cccc(C#Cc2cncnc2Nc2ccc(OCc3cccc(F)c3)c(Cl)c2)n1` the IC50 cell viability was greater than 10 µM.
In the case of `O=C(Nc1n[nH]c2nc(-c3ccco3)ccc12)C1CC1`, the IC50 cell viability is reported as greater than 10 µM.
`CCn1c(-c2nonc2N)nc2c(C#CC(C)(C)O)nc(OC[C@H](N)c3ccccc3)cc21` showed an IC50 cell viability of 1.6 µM.
In the case of `COc1cc(C)c(N(C)C(=O)CN(C)C)cc1Nc1nc(Nc2cccc(F)c2C(N)=O)c2cc[nH]c2n1`, the IC50 cell viability is reported as greater than 10 µM.
`COc1cc2ncnc(Nc3ccc4c(cnn4Cc4ccccc4)c3)c2cc1OC` was tested, and the IC50 cell viability was greater than 10 µM.
With `COC(=O)Nc1nc2ccc(Sc3ccc(NC(=O)Nc4cc(C(F)(F)F)ccc4F)cc3)cc2[nH]1` the IC50 cell viability was greater than 10 µM.
`Fc1ccc(-c2ncn(C3CCNCC3)c2-c2ccnc(Oc3ccc(Oc4ccccc4)cc3)n2)cc1` gave an IC50 cell viability of 2 µM.
With `O=C(O[C@H]1CN[C@H](C#Cc2cc3ncnc(Nc4ccc(OCc5cccc(F)c5)c(Cl)c4)c3s2)C1)N1CCOCC1` the IC50 cell viability was greater than 10 µM.
`Cc1cccc(Nc2ncc(-c3ccccc3)o2)c1` was tested, and the IC50 cell viability was greater than 10 µM.
Molecule `CC(C)c1ccc(-c2cc(-c3cn[nH]c3-c3ccccn3)ccn2)cc1` has an IC50 cell viability greater than 10 µM.
In the case of `Nc1nonc1-c1nc2cnccc2n1C1CCCCC1`, the IC50 cell viability is reported as greater than 10 µM.
Work on `COc1cc(/C=N/Nc2ncnc3[nH]ncc23)ccc1O` yielded an IC50 cell viability greater than 10 µM.
For `COc1cc2ncnc(Nc3ccc(C)c(O)c3)c2cc1OC`, the IC50 cell viability was greater than 10 µM.
With `Nc1ccc(C#Cc2cncnc2Nc2ccc(OCc3cccc(F)c3)c(Cl)c2)cc1` the IC50 cell viability was greater than 10 µM.
Molecule `Nc1nc(-c2ccc3c(c2)C(=Cc2cc(Br)c(O)c(Br)c2)C(=O)N3)cs1` has an IC50 cell viability greater than 10 µM.
Molecule `Nc1nonc1-c1nc2cnccc2n1C1CC1` has an IC50 cell viability greater than 10 µM.
`Cc1ccc(C(=O)NC2CC2)cc1-c1ccc2[nH]ncc2c1` gave an IC50 cell viability greater than 10 µM.
In the case of `CCS(=O)(=O)c1ccc(OC)c(Nc2ncc(-c3ccccc3Cl)o2)c1`, the IC50 cell viability is reported as greater than 10 µM.
`COc1c(C(N)=O)cc(-c2ccc(Cl)cc2)cc1-c1ccc(S(N)(=O)=O)cc1` showed an IC50 cell viability greater than 10 µM.
Molecule `Cc1nnc(-c2ccc(C)c(-c3ccc(C(=O)NCc4ccc(Cl)cc4)cc3)c2)o1` has an IC50 cell viability greater than 10 µM.
For `CN(C)C(=O)O[C@H]1CN[C@H](C#Cc2cc3ncnc(Nc4ccc(OCc5cccc(F)c5)c(Cl)c4)c3s2)C1`, the IC50 cell viability was greater than 10 µM.
With `COc1ccc(-c2nn3ncccc3c2-c2ccnc(Nc3ccc(F)c(F)c3)n2)cc1` the IC50 cell viability was greater than 10 µM.
`Cc1ccc(C(=O)NC(C)C)cc1-c1ccc(C(=O)NCC2CC2)cc1` gave an IC50 cell viability greater than 10 µM.
`Fc1ccc(-c2nn3ncccc3c2-c2ccnc(Nc3ccc4c(c3)OCCO4)n2)cc1` showed an IC50 cell viability greater than 10 µM.
For `Fc1cccc(COc2ccc(Nc3ncnc4sc(-c5cccs5)cc34)cc2Cl)c1`, the IC50 cell viability was greater than 10 µM.
`COc1cc2ncn(-c3cc(OCc4ccccc4Cl)c(C(N)=O)s3)c2cc1OC` showed an IC50 cell viability greater than 10 µM.
`CN(C)c1cc2c(Nc3ccc4nc(Cc5ccccc5)[nH]c4c3)ncnc2cn1` gave an IC50 cell viability greater than 10 µM.
Work on `CCCNc1cccc(-n2ncc3c(N/N=C/c4ccncc4)ncnc32)c1` yielded an IC50 cell viability greater than 10 µM.
`Cc1cccc2c(N=Nc3ccc(S(N)(=O)=O)cc3)c(O)[nH]c12` was tested, and the IC50 cell viability was greater than 10 µM.
Molecule `c1ccc(-c2[nH]ncc2-c2ccnc(-c3ccc(OCCn4ccnc4)cc3)c2)nc1` has an IC50 cell viability greater than 10 µM.
Molecule `CS(=O)(=O)CCNCc1ccoc1-c1ccc2ncnc(Nc3ccc(OCc4ccccc4)cc3)c2c1` has an IC50 cell viability greater than 10 µM.
Work on `O=C(NCC1CC1)c1ccc(-c2cccc(C(=O)NC3CC3)c2)cc1` yielded an IC50 cell viability greater than 10 µM.
`CCCN1CCCC(c2ccc(Nc3nc(Nc4cc(F)ccc4C(N)=O)c4cc[nH]c4n3)c(OC)c2)C1` (stereo not drawn) gave an IC50 cell viability of 1.4 µM.
